Measurements reported in article PMC9126592, “sp^2-Iminosugars targeting human lysosomal β-hexosaminidase as pharmacological chaperone candidates for late-onset Tay-Sachs disease” (Journal of Enzyme Inhibition and Medicinal Chemistry, 2022).
Read-outs that look alike come from different tables or passages of the source.

Columns and labels:
Format in all cases: biochemical
[1] = target: β-hexosaminidase from Jack bean; experiment: Commercial enzyme inhibition assay, β-hexosaminidase from Jack bean; details: mean ± SD (n = 3); competitive
Method: (§1) Inhibition constant (Ki) values were determined by spectrophotometrically measuring the residual hydrolytic activities of the glycosidases against the respective o- (for β-galactosidase from E. coli) or p-nitrophenyl α- or β-D-glycopyranoside (for other glycosidases) in the presence of the iminosugars. Each assay was performed in phosphate buffer or phosphate-citrate buffer (for α- or β-mannosidase, amyloglucosidase or β-N-acetylglucosaminidase) at the optimal pH for the enzymes. The reactions were initiated by addition of the enzyme to a solution of the substrate in the absence or presence of various inhibitor concentrations. The mixture was incubated for 10–30 min at 37 °C or 55 °C (for amyloglucosidase) and the reaction was quenched by addition of 1 m Na2CO3. Reaction times were appropriate to obtain 10%–20% conversion of the substrate in order to achieve linear rates. The absorbance of the resulting mixture was determined at 405 nm. Approximate values of Ki were determined using a fixed concentration of substrate (around the KM value for the different glycosidases) and various inhibitor concentrations. Full Ki determinations and the enzyme inhibition mode were determined from the slope of Lineweaver-Burk plots and double reciprocal analysis.

[2] = target: β-hexosaminidase from bovine kidney; experiment: Commercial enzyme inhibition assay, β-hexosaminidase from bovine kidney; details: mean ± SD (n = 3); competitive
Method: as §1

[3] = target: T1, HexA (human lysosomal β-hexosaminidase A) (Homo sapiens, UniProt P06865); experiment: Inhibition of HexA in human fibroblast lysates at pH 7 or pH 5
T1 construct: HexA activities in cell lysates were also determined in 0.1 M citrate buffer at pH 5 or pH 7; endogenous in cells; host or cells: human fibroblasts (lysate)
T1 sequence (P06865 89-529): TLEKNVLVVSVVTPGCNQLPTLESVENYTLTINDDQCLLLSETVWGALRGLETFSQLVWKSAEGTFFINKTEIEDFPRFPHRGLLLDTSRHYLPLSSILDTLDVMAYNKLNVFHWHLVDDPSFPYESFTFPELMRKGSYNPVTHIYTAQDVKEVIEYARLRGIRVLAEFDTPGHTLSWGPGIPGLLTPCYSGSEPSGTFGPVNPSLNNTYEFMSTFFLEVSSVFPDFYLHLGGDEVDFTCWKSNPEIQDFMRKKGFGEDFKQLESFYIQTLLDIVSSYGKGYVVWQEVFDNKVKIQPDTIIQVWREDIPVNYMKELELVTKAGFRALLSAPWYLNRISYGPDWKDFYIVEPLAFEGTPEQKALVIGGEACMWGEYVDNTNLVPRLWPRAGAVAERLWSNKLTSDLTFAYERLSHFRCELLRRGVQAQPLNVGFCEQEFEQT
T1 sequence (P07686 122-556 partner): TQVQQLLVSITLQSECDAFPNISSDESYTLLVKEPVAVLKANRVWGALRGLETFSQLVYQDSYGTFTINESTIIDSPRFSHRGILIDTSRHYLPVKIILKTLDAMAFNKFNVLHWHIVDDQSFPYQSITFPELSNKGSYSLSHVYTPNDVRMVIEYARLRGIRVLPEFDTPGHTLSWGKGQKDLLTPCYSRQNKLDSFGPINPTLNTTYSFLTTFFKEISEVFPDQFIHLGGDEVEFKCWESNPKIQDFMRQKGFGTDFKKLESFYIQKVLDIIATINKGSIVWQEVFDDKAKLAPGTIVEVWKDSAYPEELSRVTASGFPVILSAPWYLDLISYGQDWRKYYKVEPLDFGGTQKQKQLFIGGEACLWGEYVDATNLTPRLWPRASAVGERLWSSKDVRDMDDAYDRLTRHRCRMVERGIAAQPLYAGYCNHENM
Method: (§2) For determination of lysosomal enzyme activities in cell lysates, cells were scraped into ice-cold H2O (10^6 cells mL^−1) and lysed by sonication. Insoluble materials were removed by centrifugation at 15,000 rpm for 5 min and protein concentrations were determined with Protein Assay Rapid Kit (WAKO, Tokyo, Japan). 10 µL of the lysates in 0.1% Triton X-100 in distilled water were incubated at 37 °C with 20 µL of the substrate solution in 0.1 M citrate buffer, pH 4.5, in absence or presence of increasing concentrations of the chaperones. The substrates were 4-methylumbelliferone (4-MU)-conjugated β-D-glucopyranoside (for GCase), α-D-glucopyranoside (for α-glucosidase), α-D-galactopyranoside (for α-Galase), β-D-galactopyranoside (for β-galactosidase), N-acetyl-β-D-glucosaminide (for total β-hexosaminidase), N-acetyl-β-D-glucosaminide-6-sulfate sodum salt (for HexA) and α-N-acetyl-D-galactosaminide for α-N-acetylgalactosaminidase. HexA activities in cell lysates were also determined in 0.1 M citrate buffer at pH 5 or pH 7, supplemented with sodium taurocholate (0.8% w/v). The reactions were terminated by adding 0.2 ml of 0.2 M glycine sodium hydroxide buffer (pH 10.7). The liberated 4-methylumbelliferone was measured in the black-well plate with a Perkin Elmer Luminescence Spectrometer (excitation wavelength: 340 nm; emission: 460 nm). One unit of enzyme activity was defined as nmol of 4-methylumbelliferone released per hour and normalised for the amount of protein contained in the lysates.

[4] = target: Total Hex (human lysosomal β-hexosaminidase); experiment: Inhibition of total β-hexosaminidase in human fibroblast lysates; details: mean of three determinations
Method: as §2

[5] = target: β-hexosaminidase from human placenta; experiment: Commercial enzyme inhibition assay, β-hexosaminidase from human placenta; details: mean ± SD (n = 3); competitive
Method: as §1

[6] = pH 5, competitive, read-out: Ki HexA pH 5
[7] = pH 7, competitive, read-out: Ki HexA pH 7

SMILES: CCCCN=C1SCC2C(O)C(O)C(NC(C)=O)CN12 (stereo not drawn) [Compound 5, 2-Acetamido-1,2-dideoxy-5-N,6-S-(N’-butyliminomethylidene)-6-thiogalactonojirimycin]
- Ki [1]: 140 ± 10 nM
- Ki [2]: 24 ± 2 nM
- Ki [3, 6]: 9800 nM
- Ki [3, 7]: 990 nM
- IC50 [4]: 2600 nM
- Ki [5]: 55 ± 2 nM

SMILES: CCCCCCCCN=C1SCC2C(O)C(O)C(NC(C)=O)CN12 (stereo not drawn) [Compound 6, 2-Acetamido-1,2-dideoxy-5-N,6-S-(N’-octyliminomethylidene)-6-thiogalactonojirimycin]
- Ki [1]: 48 ± 2 nM
- Ki [2]: 15 ± 1 nM
- Ki [3, 6]: 6400 nM
- Ki [3, 7]: 580 nM
- IC50 [4]: 1300 nM
- Ki [5]: 26 ± 1 nM

SMILES: CCCCCCCCNC(=S)N1C[C@H](NC(C)=O)[C@@H](O)[C@@H](O)[C@H]1CO [Compound 2, 2-Acetamido-1,2-dideoxy-5-N-(N’-octylthiocarbamoyl)galactonojirimycin]
- Ki [1]: 7200 ± 200 nM
- Ki [2]: 2200 ± 100 nM
- Ki [3, 6]: > 100000 nM
- Ki [3, 7]: > 100000 nM
- IC50 [4]: > 100000 nM
- Ki [5]: 3000 ± 100 nM

SMILES: CC(=O)N[C@H]1CN(C(=S)Nc2ccccc2)[C@H](CO)[C@H](O)[C@@H]1O [Compound 4, 2-Acetamido-1,2-dideoxy-5-N-(N’-phenylthiocarbamoyl)galactonojirimycin]
- Ki [1]: 65 nM
- Ki [2]: 140 ± 10 nM
- Ki [3, 6]: 9400 nM
- Ki [3, 7]: 910 nM
- IC50 [4]: 10900 nM
- Ki [5]: 240 nM

SMILES: CC(=O)N[C@H]1CN(C(=S)NCc2ccccc2)[C@H](CO)[C@H](O)[C@@H]1O [Compound 3, 2-Acetamido-1,2-dideoxy-5-N-(N’-benzylthiocarbamoyl)galactonojirimycin]
- Ki [1]: 5100 ± 200 nM
- Ki [2]: 6300 ± 200 nM
- Ki [3, 6]: > 100000 nM
- Ki [3, 7]: > 100000 nM
- IC50 [4]: > 100000 nM
- Ki [5]: 16000 ± 500 nM

SMILES: CC(=O)NC1CN2C(=Nc3ccccc3)SCC2C(O)C1O (stereo not drawn) [Compound 8, 2-Acetamido-1,2-dideoxy-5-N,6-S-(N’-phenyliminomethylidene)-6-thiogalactonojirimycin]
- Ki [1]: 130 ± 10 nM
- Ki [2]: 46 ± 2 nM
- Ki [3, 6]: 3900 nM
- Ki [3, 7]: 410 nM
- IC50 [4]: 330 nM
- Ki [5]: 44 ± 2 nM

SMILES: CCCCNC(=S)N1C[C@H](NC(C)=O)[C@@H](O)[C@@H](O)[C@H]1CO [Compound 1, 2-Acetamido-1,2-dideoxy-5-N-(N’-butylthiocarbamoyl)galactonojirimycin]
- Ki [1]: 3000 ± 100 nM
- Ki [2]: 3500 ± 200 nM
- Ki [3, 6]: 33700 nM
- Ki [3, 7]: 4700 nM
- IC50 [4]: > 100000 nM
- Ki [5]: 4800 ± 200 nM

SMILES: CC(=O)NC1CN2C(=NCc3ccccc3)SCC2C(O)C1O (stereo not drawn) [Compound 7, 2-Acetamido-1,2-dideoxy-5-N,6-S-(N’-benzyliminomethylidene)-6-thiogalactonojirimycin]
- Ki [1]: 88 ± 3 nM
- Ki [2]: 20 ± 1 nM
- Ki [3, 6]: 6900 nM
- Ki [3, 7]: 660 nM
- IC50 [4]: 2200 nM
- Ki [5]: 26 ± 1 nM
